Assay results from ChEMBL document CHEMBL1154346 (Bioorg Med Chem Lett, 2009).

What was measured:
Canis familiaris = experiment: Cardiotoxicity in conscious dog assessed as prolongation of QT interval; assay type: toxicity, organism-based, Canis lupus familiaris; conditions: in vivo
[1] = target: Voltage-gated inwardly rectifying potassium channel KCNH2 (Homo sapiens, UniProt Q12809); experiment: Displacement of [3H]dofetilide from human ERG expressed in HEK293 cells; assay type: cell-based
[2] = Toxicity in iv dosed mouse assessed as loss of righting reflex; assay type: organism-based; conditions: in vivo, read-out: HD50 (the source's name)

Sequence of Voltage-gated inwardly rectifying potassium channel KCNH2 (Q12809 whole entry): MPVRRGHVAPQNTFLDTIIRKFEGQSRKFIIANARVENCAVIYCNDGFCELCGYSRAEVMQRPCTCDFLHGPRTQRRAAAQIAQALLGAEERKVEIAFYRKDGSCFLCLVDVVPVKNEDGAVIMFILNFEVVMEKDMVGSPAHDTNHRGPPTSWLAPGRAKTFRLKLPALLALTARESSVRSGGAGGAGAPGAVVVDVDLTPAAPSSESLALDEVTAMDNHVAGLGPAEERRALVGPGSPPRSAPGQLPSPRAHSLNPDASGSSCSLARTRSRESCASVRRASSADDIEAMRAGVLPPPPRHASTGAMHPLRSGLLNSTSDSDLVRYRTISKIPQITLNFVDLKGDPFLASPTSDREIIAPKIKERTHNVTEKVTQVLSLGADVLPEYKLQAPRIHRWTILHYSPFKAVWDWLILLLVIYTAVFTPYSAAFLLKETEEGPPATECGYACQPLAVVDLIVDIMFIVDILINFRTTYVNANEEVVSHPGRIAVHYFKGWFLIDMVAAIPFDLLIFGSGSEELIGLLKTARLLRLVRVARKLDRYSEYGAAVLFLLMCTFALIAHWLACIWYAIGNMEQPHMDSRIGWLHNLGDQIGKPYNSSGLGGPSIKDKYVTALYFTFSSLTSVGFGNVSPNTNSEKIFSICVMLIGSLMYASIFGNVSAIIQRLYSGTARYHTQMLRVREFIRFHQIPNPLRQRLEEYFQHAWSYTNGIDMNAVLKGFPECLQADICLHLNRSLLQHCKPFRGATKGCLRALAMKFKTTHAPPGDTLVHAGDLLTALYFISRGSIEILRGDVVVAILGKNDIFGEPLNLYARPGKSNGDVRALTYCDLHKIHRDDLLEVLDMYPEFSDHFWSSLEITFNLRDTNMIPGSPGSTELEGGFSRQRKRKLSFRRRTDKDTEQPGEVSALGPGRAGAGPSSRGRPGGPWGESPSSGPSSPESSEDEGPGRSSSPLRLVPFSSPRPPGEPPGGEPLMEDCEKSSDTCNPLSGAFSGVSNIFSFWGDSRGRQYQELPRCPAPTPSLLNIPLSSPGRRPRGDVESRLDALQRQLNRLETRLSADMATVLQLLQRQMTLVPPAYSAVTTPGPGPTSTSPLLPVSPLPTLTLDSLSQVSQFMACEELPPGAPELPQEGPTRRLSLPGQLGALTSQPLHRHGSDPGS

## CNC(=O)Cn1c(=O)n(C2CCN(CCC(Oc3cc(OC)ccc3C)C(C)C)CC2)c2ccccc21 (racemic)
Canis familiaris
  Activity: 10%
[1]
  Ki: 56 nM
[2]
  TD50: 4.7 µmol/kg
